The compounds below were run against 5-HT2A receptors (Rattus norvegicus, UniProt P14842) (assay: in-vitro affinity to 5-HT2A receptors, displacement of [3H]ketanserine (Example A1)). Settings: read-out: HT2A IC50.
Chain of 5-HT2A receptors (P14842 whole entry): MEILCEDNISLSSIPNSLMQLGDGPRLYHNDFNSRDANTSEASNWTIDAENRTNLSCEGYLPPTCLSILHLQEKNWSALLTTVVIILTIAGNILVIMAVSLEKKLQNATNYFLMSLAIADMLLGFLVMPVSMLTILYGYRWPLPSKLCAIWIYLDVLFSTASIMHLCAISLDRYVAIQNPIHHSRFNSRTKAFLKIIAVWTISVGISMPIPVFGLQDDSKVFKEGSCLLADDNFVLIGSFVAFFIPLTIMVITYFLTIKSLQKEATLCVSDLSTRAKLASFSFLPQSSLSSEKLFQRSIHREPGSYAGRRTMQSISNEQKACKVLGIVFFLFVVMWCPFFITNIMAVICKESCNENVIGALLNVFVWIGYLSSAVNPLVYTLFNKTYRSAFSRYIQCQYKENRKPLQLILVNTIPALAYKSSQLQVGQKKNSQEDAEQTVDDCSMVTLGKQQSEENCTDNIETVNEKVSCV
Assay type: binding
From the text: The 5-HT2A receptors are exposed both to [^3H]ketanserine (a substance which is known for its affinity to the receptor) and also to the test compound. The decrease in the affinity of [^3H]ketanserine to the receptor is an indication of the affinity of the test substance to the 5-HT2A receptor.
In the case of `CCN1CCN(Cc2cnn(-c3ccc(-c4ccc(F)cc4)cc3)c2-c2cccc(OC)c2)CC1` [Example 938, 1-Ethyl-4-[1-(4′-fluorobiphenyl-4-yl)-5-(3-methoxyphenyl)-1H-pyrazol-4-ylmethyl]-piperazine], the IC50 is reported as 35 nM. `Nc1ccncc1NCc1cnn(-c2ccc(-c3ccccc3)cc2)c1-c1ccccc1F` [Example 1006, N3-[1-Biphenyl-4-yl-5-(2-fluoro-phenyl)-1H-pyrazol-4-ylmethyl]pyridine-3,4-diamine] showed an IC50 of 180 nM. `CN1CCN(Cc2cnn(-c3ccc(-c4ccc(F)cc4)cc3)c2-c2cc(Cl)cc(Cl)c2)CC1` [Example 1052, 1-[5-(3,5-Dichlorophenyl)-1-(4′-fluoro-biphenyl-4-yl)-1H-pyrazol-4-ylmethyl]-4-methyl-piperazine] showed an IC50 of 400 nM. With `CCC1(O)CCN(Cc2cnn(-c3ccc(-c4ccccc4)cc3)c2-c2ccccc2F)CC1` [Example 1033, 1-[1-Biphenyl-4-yl-5-(2-fluorophenyl)-1H-pyrazol-4-ylmethyl]-4-ethylpiperidin-4-ol] the IC50 was 280 nM. With `Cc1ccc(-c2ccc(-n3ncc(CN4CCN(C)CC4)c3-c3ccccc3F)cc2)c(F)c1F` [Example 959, 1-[1-(2′,3′-Difluoro-4′-methylbiphenyl-4-yl)-5-(2-fluorophenyl)-1H-pyrazol-4-ylmethyl]-4-methylpiperazine] the IC50 was 60 nM. Compound `CN1CCN(Cc2cnn(-c3ccc(Br)cc3)c2-c2ccccc2F)CC1` [Example 989, 1-[1-(4-Bromophenyl)-5-(2-fluoro-phenyl)-1H-pyrazol-4-ylmethyl]-4-methylpiperazine] has an IC50 of 130 nM. With `Cc1cccc(-c2ccc(-n3ncc(CN4CCN(C)CC4)c3-c3ccccc3F)cc2)c1` [Example 1017, 1-[5-(2-Fluorophenyl)-1-(3′-methylbiphenyl-4-yl)-1H-pyrazol-4-ylmethyl]-4-methylpiperazine] the IC50 was 220 nM. `Cc1cc(CNCc2cnn(-c3ccc(-c4ccccc4)cc3)c2-c2ccccc2)no1` [Example 1023, (1-Biphenyl-4-yl-5-phenyl-1H-pyrazol-4-yl-methyl)-(5-methylisoxazol-3-ylmethyl)amine] gave an IC50 of 240 nM. In the case of `Fc1ccccc1-c1c(CNCCc2c[nH]cn2)cnn1-c1ccc(-c2ccccc2)cc1` [Example 1002, [1-Biphenyl-4-yl-5-(2-fluorophenyl)-1H-pyrazol-4-ylmethyl]-[2-(1H-imidazol-4-yl)-ethyl]amine], the IC50 is reported as 170 nM. `Fc1ccccc1-c1c(CN2CCN3CCc4ccccc4C3C2)cnn1-c1ccc(-c2ccccc2)cc1` (stereo not shown) [Example 1031, 2-[1-Biphenyl-4-yl-5-(2-fluorophenyl)-1H-pyrazol-4-ylmethyl]-1,3,4,6,7,11b-hexahydro-2H-pyrazino[2,1-a]isoquinoline] was tested, and the IC50 was 280 nM. `Fc1ccccc1-c1c(CN2CC3CC2CO3)cnn1-c1ccc(-c2ccccc2)cc1` (stereo not shown) [Example 996, 5-[1-Biphenyl-4-yl-5-(2-fluorophenyl)-1H-pyrazol-4-ylmethyl]-2-oxa-5-azabicyclo-[2.2.1]heptane] gave an IC50 of 160 nM. With `Fc1ccccc1-c1c(CNCc2cccnc2)cnn1-c1ccc(-c2ccccc2)cc1` [Example 1004, [1-Biphenyl-4-yl-5-(2-fluorophenyl)-1H-pyrazol-4-ylmethyl]pyridin-3-ylmethylamine] the IC50 was 180 nM. For `COc1ccc(-c2c(CN3CCN(C(C)C)CC3)cnn2-c2ccc(-c3ccc(F)cc3)cc2)cc1` [Example 1040, 1-[1-(4′-Fluorobiphenyl-4-yl)-5-(4-methoxy-phenyl)-1H-pyrazol-4-ylmethyl]-4-isopropyl-piperazine], the IC50 was 320 nM.

Same assay, conditions: target not given; description names affinity to 5-HT2A receptors; read-out: IC50
`CC(C)c1ccc(-n2ncc(CN3CCN(C)CC3)c2-c2ccccc2F)cc1` [(114), 1-[5-(2-Fluorophenyl)-1-(4-isopropylphenyl)-1H-pyrazol-4-ylmethyl]-4-methylpiperazine] showed an IC50 of 120 nM. Work on `Fc1ccccc1-c1c(CNc2ccon2)cnn1-c1ccc(-c2ccccc2)cc1` [(138), [1-Biphenyl-4-yl-5-(2-fluorophenyl)-1H-pyrazol-4-ylmethyl]-isoxazol-3-ylamine] yielded an IC50 of 240 nM. In the case of `CN1CCN(Cc2cnn(-c3ccc(-c4ccsc4)cc3)c2-c2ccccc2)CC1` [(98), 1-Methyl-4-[5-phenyl-1-(4-thiophen-3-ylphenyl)-1H-pyrazol-4-ylmethyl]piperazine], the IC50 is reported as 31 nM. `NCCc1cnn(-c2ccc(-c3ccccc3)cc2)c1-c1ccccc1F` [(188), 2-[1-Biphenyl-4-yl-5-(2-fluorophenyl)-1H-pyrazol-4-yl]-ethylamine] showed an IC50 of 1400 nM. Compound `OCCN1CCN(Cc2cnn(-c3ccc(-c4ccccc4)cc3)c2-c2ccccc2F)CC1` [(79), 2-{4-[1-Biphenyl-4-yl-5-(2-fluorophenyl)-1H-pyrazol-4-ylmethyl]piperazin-1-yl}ethanol] has an IC50 of 280 nM. Work on `COCCN(C)Cc1cnn(-c2ccc(-c3cc(F)ccc3F)nc2)c1-c1ccccc1F` [(159), [1-[6-(2,5-Difluorophenyl)pyridin-3-yl]-5-(2-fluorophenyl)-1H-pyrazol-4-ylmethyl]-(2-methoxyethyl)-methylamine] yielded an IC50 of 1400 nM. `CCOC(=O)CNCc1cnn(-c2ccc(-c3ccccc3)cc2)c1-c1cccnc1` [(117), Ethyl [(1-biphenyl-4-yl-5-pyridin-3-yl-1H-pyrazol-4-ylmethyl)-amino]acetate] showed an IC50 of 940 nM. For `O=C(c1cnn(-c2ccc(-c3ccccc3)cc2)c1-c1ccccc1F)N1CCOCC1` [(193), 1-[1-Biphenyl-4-yl-5-(2-fluorophenyl)-1H-pyrazol-4-yl]-1-morpholin-4-ylmethanone], the IC50 was 360 nM. Compound `c1ccc(-c2ccc(-n3ncc(CNCc4ccccn4)c3-c3ccccc3)cc2)cc1` [(172), (1-Biphenyl-4-yl-5-phenyl-1H-pyrazol-4-ylmethyl)pyridin-2-ylmethylamine] has an IC50 of 23 nM. Compound `Fc1ccccc1-c1c(CCN2CCOCC2)cnn1-c1ccc(-c2ccccc2)cc1` [(185), 4-{2-[1-Biphenyl-4-yl-5-(2-fluorophenyl)-1H-pyrazol-4-yl]ethyl}morpholine] has an IC50 of 40 nM. Work on `Fc1ccccc1-c1c(C=CCN2CCOCC2)cnn1-c1ccc(-c2ccccc2)cc1` [(46), 4-{3-[1-Biphenyl-4-yl-5-(2-fluorophenyl)-1H-pyrazol-4-yl]allyl}morpholine] yielded an IC50 of 17 nM. Compound `Fc1ccccc1-c1c(CN2CCNCC2)cnn1-c1ccc(-c2ccccc2)nc1` [(56), 1-[5-(2-Fluorophenyl)-1-(6-phenylpyridin-3-yl)-1H-pyrazol-4-ylmethyl]piperazine] has an IC50 of 150 nM. For `CN1CCN(Cc2cnn(-c3ccc(-c4ccccc4)cc3)c2-c2ccccc2F)CC1` [(41), 1-[1-Biphenyl-4-yl-5-(2-fluorophenyl)-1H-pyrazol-4-ylmethyl]-4-methylpiperazine], the IC50 was 24 nM. For `Fc1ccccc1-c1c(CN2CCN(Cc3ccsc3)CC2)cnn1-c1ccc(-c2ccccc2)cc1` [(135), 1-[1-Biphenyl-4-yl-5-(2-florophenyl)-1H-pyrazol-4-ylmethyl]-4-thiophen-3-ylmethylpiperazine], the IC50 was 380 nM. `CN1CCCN(Cc2cnn(-c3ccc(-c4ccccc4)cc3)c2-c2ccccc2F)CC1` [(93), 1-[1-Biphenyl-4-yl-5-(2-fluorophenyl)-1H-pyrazol-4-ylmethyl]-4-methyl-[1,4]diazepam] showed an IC50 of 6.4 nM. With `Fc1ccccc1-c1c(CN2CCC(N3CCOCC3)CC2)cnn1-c1ccc(-c2ccccc2)cc1` [(25), 4-{1-[1-Biphenyl-4-yl-5-(2-fluorophenyl)-1H-pyrazol-4-ylmethyl]piperidin-4-yl}morpholine] the IC50 was 560 nM. For `Fc1ccc(-c2ccc(-n3ncc(CNc4cccnc4)c3-c3ccccc3F)cn2)cc1` [(144), {5-(2-Fluorophenyl)-1-[6-(4-fluorophenyl)pyridin-3-yl]-1H-pyrazol-4-ylmethyl}pyridin-3-ylamine], the IC50 was 890 nM. With `Fc1ccccc1-c1c(CN2CC3CC2CO3)cnn1-c1ccc(-c2ccccc2)cc1` (stereo not shown) [(82), 5-[1-Biphenyl-4-yl-5-(2-fluorophenyl)-1H-pyrazol-4-ylmethyl]-2-oxa-5-azabicyclo[2.2.1]heptane] the IC50 was 160 nM. `Fc1ccccc1-c1c(CN2CCOCC2)cnn1-c1ccc(-c2ccccc2)cc1` [(28), 4-[1-Biphenyl-4-yl-5-(2-fluorophenyl)-1H-pyrazol-4-ylmethyl]-morpholine] showed an IC50 of 1100 nM. Compound `CN1CCN(Cc2cnn(-c3ccc(-c4ccccc4)cc3)c2-c2cccnc2)CC1` [(113), 1-(1-Biphenyl-4-yl-5-pyridin-3-yl-1H-pyrazol-4-ylmethyl)-4-methylpiperazine] has an IC50 of 290 nM. For `Fc1ccccc1-c1c(CN2CCCC2)cnn1-c1ccc(-c2ccccc2)cc1` [(35), 1-Biphenyl-4-yl-5-(2-fluorophenyl)-4-pyrrolidin-1-ylmethyl-1H-pyrazole], the IC50 was 32 nM. For `COc1ccccc1-c1c(CN2CCN(C)CC2)cnn1-c1ccc(-c2ccsc2)cc1` [(105), 1-[5-(2-Methoxyphenyl)-1-(4-thiophen-3-ylphenyl)-1H-pyrazol-4-ylmethyl]-4-methylpiperazine], the IC50 was 460 nM. `NC(=O)CN1CCN(Cc2cnn(-c3ccc(-c4ccccc4)cc3)c2-c2ccccc2F)CC1` [(111), 2-{4-[1-Biphenyl-4-yl-5-(2-fluorophenyl)-1H-pyrazol-4-ylmethyl]piperazin-1-yl}acetamide] showed an IC50 of 360 nM. Work on `CN(C)C1CCN(Cc2cnn(-c3ccc(-c4ccccc4)cc3)c2-c2ccccc2F)C1` (stereo not shown) [(167), {1-[1-Biphenyl-4-yl-5-(2-fluorophenyl)-1H-pyrazol-4-ylmethyl]-pyrrolidin-3-yl}dimethylamine] yielded an IC50 of 230 nM. `CN1CCN(Cc2cnn(-c3ccc(-c4ccsc4)cc3)c2-c2ccccc2F)CC1` [(66), 1-[5-(2-Fluorophenyl)-1-(4-thiophen-3-ylphenyl)-1H-pyrazol-4-ylmethyl]-4-methylpiperazine] showed an IC50 of 14 nM. Work on `CN(C)C(=O)CNCc1cnn(-c2ccc(-c3ccccc3)cc2)c1-c1ccccc1F` [(128), 2-{[1-Biphenyl-4-yl-5-(2-fluorophenyl)-1H-pyrazol-4-ylmethyl]-amino}-N,N-dimethylacetamide] yielded an IC50 of 200 nM. `O=C1NCCCCC1NCc1cnn(-c2ccc(-c3ccccc3)cc2)c1-c1ccccc1F` (stereo not shown) [(163), 3-{[1-Biphenyl-4-yl-5-(2-fluorophenyl)-1H-pyrazol-4-ylmethyl]-amino}azepan-2-one] showed an IC50 of 510 nM.

Reference: patent publication US20060264419A1 (priority 2003, published 2006)
